Our source for the IC50 values is BindingDB's records for patent US10266537 (St. Chuan University, 2019).

For the assay, the target named is Tyrosine-protein kinase ABL1 [T315I] (Homo sapiens, UniProt P00519, T315I). In words: Kinase Inhibition Assays.

Molecule `C=CC(=O)N1CCC(n2nc(C#Cc3cc(C(=O)Nc4ccc(CN5CCN(C)CC5)c(C(F)(F)F)c4)ccc3C)c3c(N)ncnc32)CC1` [US10266537, Compound 121] came in with an IC50 of 133 nM.

The term IC50 denotes the point on the concentration scale where inhibition reaches its midpoint.
